This is an account of results in ChEMBL document CHEMBL3808371, “Design, synthesis and biological evaluation of diaziridinyl quinone isoxazole hybrids” (Eur J Med Chem, 2016).

Values after ≈ are worked out from the molar mass of the structure shown.

A short description of experiment [1]: Cytotoxicity against human PC3 cells after 72 hrs by XTT assay. It counts as functional, cell-based. As to conditions: PC-3, 72 h. For orientation: Tetrazolium dyes change colour on reduction, which living cells bring about.
Experiment [2] deals with A549. Nature of the experiment: Cytotoxicity against human A549 cells after 72 hrs by XTT assay. As to conditions: A549, 72 h. It counts as functional, cell-based.
Experiment [3] has as its system Bacillus subtilis. The experiment in a line: Antimicrobial activity against Bacillus subtilis MTCC 121 after 24 hrs by well diffusion method. It counts as functional. The conditions noted are these: MTCC 121, 24 h.
In experiment [4] the test system is Micrococcus luteus. The experiment in a line: Antimicrobial activity against Micrococcus luteus MTCC 2470 after 24 hrs by well diffusion method. It counts as functional. As to conditions: MTCC 2470, 24 h. On the technique in general: A growth-free zone around the sample is the usual read-out of agar diffusion tests.
Experiment [5] deals with Staphylococcus aureus. Nature of the experiment: Bactericidal activity against Staphylococcus aureus MLS16 MTCC 2940 after 24 hrs by serial dilution method. As to conditions: MLS16 MTCC 2940, 24 h. Type of experiment: functional.
For experiment [6], the system named is Micrococcus luteus. Nature of the experiment: Bactericidal activity against Micrococcus luteus MTCC 2470 after 24 hrs by serial dilution method. It counts as functional. As to conditions: MTCC 2470, 24 h.
Experiment [7] has as its system Staphylococcus aureus. The experiment in a line: Antimicrobial activity against Staphylococcus aureus MTCC 96 after 24 hrs by well diffusion method. It counts as functional. The conditions noted are these: MTCC 96, 24 h.
In experiment [8] the test system is Candida albicans. The experiment in a line: Antimicrobial activity against Candida albicans MTCC 3017 after 24 hrs by well diffusion method. Type of experiment: functional. As to conditions: MTCC 3017, 24 h.
The subject of experiment [9] is Staphylococcus aureus. Nature of the experiment: Bactericidal activity against Staphylococcus aureus MTCC 96 after 24 hrs by serial dilution method. It counts as functional. As to conditions: MTCC 96, 24 h.
Experiment [10] concerns Raoultella planticola. Nature of the experiment: Antimicrobial activity against Klebsiella planticola MTCC 530 after 24 hrs by well diffusion method. Type of experiment: functional. As to conditions: MTCC 530, 24 h.
In experiment [11] the test system is Escherichia coli. The experiment in a line: Antimicrobial activity against Escherichia coli MTCC 739 after 24 hrs by well diffusion method. Type of experiment: functional. The conditions noted are these: MTCC 739, 24 h.
For experiment [12], the system named is Bacillus subtilis. Nature of the experiment: Antibiofilm activity against Bacillus subtilis MTCC 121 after 24 hrs by crystal violet staining based assay. Type of experiment: functional, organism-based. The conditions noted are these: MTCC 121, 24 h.
The test system of experiment [13] is Raoultella planticola. Nature of the experiment: Bactericidal activity against Klebsiella planticola MTCC 530 after 24 hrs by serial dilution method. Type of experiment: functional. As to conditions: MTCC 530, 24 h.
The test system of experiment [14] is Bacillus subtilis. Nature of the experiment: Bactericidal activity against Bacillus subtilis MTCC 121 after 24 hrs by serial dilution method. Type of experiment: functional. The conditions noted are these: MTCC 121, 24 h.
Experiment [15] relates to Staphylococcus aureus. Nature of the experiment: Antimicrobial activity against Staphylococcus aureus MLS16 MTCC 2940 after 24 hrs by well diffusion method. Type of experiment: functional. The conditions noted are these: MLS16 MTCC 2940, 24 h.
For experiment [16], the system named is Micrococcus luteus. Nature of the experiment: Antibiofilm activity against Micrococcus luteus MTCC 2470 after 24 hrs by crystal violet staining based assay. Type of experiment: functional, organism-based. As to conditions: MTCC 2470, 24 h.
Experiment [17] relates to Pseudomonas aeruginosa. The experiment in a line: Antimicrobial activity against Pseudomonas aeruginosa MTCC 2453 after 24 hrs by well diffusion method. The conditions noted are these: MTCC 2453, 24 h. Type of experiment: functional.

In general, IC50 refers to the concentration needed to halve the response being measured. A high value points to lower potency. Regarding `COc1ccc(OC)c(-c2cc(-c3ccc(C(=O)NCC4CC4)s3)on2)c1`, the IC50 in experiment [1] and in experiment [2] was above 30 µM each time.
One may read the MIC as the least concentration at which growth counts as inhibited. As usually defined, the MBC is the lowest tested concentration that kills the bacteria rather than only halting them. Low readings indicate greater bactericidal potency, high ones weaker bactericidal potency. Regarding `O=C1C=C(N2CC2)C(=O)C(c2cc(-c3ccc(C(=O)N4CCC(C(F)(F)F)CC4)s3)on2)=C1N1CC1`, the MIC was 3.9 µg/mL (≈ 7.52 µM) in experiment [3]; 31.2 µg/mL (≈ 60.2 µM) in experiment [4]; above 125 µg/mL in experiment [7]; 31.2 µg/mL (≈ 60.2 µM) in experiment [8]; above 125 µg/mL in experiment [10]; above 125 µg/mL in experiment [11]. Besides, the MIC in experiment [15] and in experiment [17] was above 125 µg/mL each time. In addition, the IC50 in experiment [1] came out at 2 µM; in experiment [2], 3.7 µM; in experiment [12], 2.1 µM; in [16], 16.2 µM. The MBC in experiment [5] was above 125 µg/mL; in experiment [6], 62.5 µg/mL (≈ 121 µM); in experiment [9] it was above 125 µg/mL; in experiment [13] it was above 125 µg/mL; in [14], 7.8 µg/mL (≈ 15 µM).
Turning to `CN(Cc1ccc(F)cc1)C(=O)c1ccc(-c2cc(C3=CC(=O)C=CC3=O)no2)s1`, the IC50 in [1] and in experiment [2] was above 30 µM in each case.
For `CCN(CC)C(=O)c1ccc(-c2cc(C3=CC(=O)C=CC3=O)no2)s1`, the IC50 was 8.9 µM in experiment [1] and 10 µM in experiment [2].
In the case of `COc1ccc(OC)c(-c2cc(-c3ccc(C(=O)N(C)C)s3)on2)c1`, the IC50 in [1] and in experiment [2] was above 30 µM each time.
Consider `CCN(CC)C(=O)c1ccc(-c2cc(C3=C(N4CC4)C(=O)C=C(N4CC4)C3=O)no2)s1`, for which the MIC in experiment [3] was 7.8 µg/mL (≈ 17.8 µM); in experiment [4], 15.6 µg/mL (≈ 35.6 µM); in experiment [7], 7.8 µg/mL (≈ 17.8 µM); in [8], 15.6 µg/mL (≈ 35.6 µM); in [10], 15.6 µg/mL (≈ 35.6 µM); in experiment [11], above 125 µg/mL. Further, the MIC is 7.8 µg/mL (≈ 17.8 µM) in experiment [15] and above 125 µg/mL in experiment [17]. Besides, the IC50 in [1] is 0.5 µM; in experiment [2], 0.9 µM. Besides, the MBC in experiment [5] stood at 31.2 µg/mL (≈ 71.2 µM); in [6], 62.5 µg/mL (≈ 143 µM); in experiment [9] it was 15.6 µg/mL (≈ 35.6 µM); in experiment [13], 62.5 µg/mL (≈ 143 µM); in experiment [14], 31.2 µg/mL (≈ 71.2 µM).
Consider `CN(Cc1ccccc1)C(=O)c1ccc(-c2cc(C3=C(N4CC4)C(=O)C=C(N4CC4)C3=O)no2)s1`, for which the MIC is 31.2 µg/mL (≈ 64.1 µM) in experiment [3]; 15.6 µg/mL (≈ 32.1 µM) in experiment [4]; 31.2 µg/mL (≈ 64.1 µM) in experiment [7]; above 125 µg/mL in experiment [8]; above 125 µg/mL in [10]; above 125 µg/mL in experiment [11]. Further, the MIC in [15] is 62.5 µg/mL (≈ 128 µM); in experiment [17], above 125 µg/mL. Also, the IC50 amounted to 1.2 µM in experiment [1] and 7.3 µM in [2]. Moreover, the MBC was 125 µg/mL (≈ 257 µM) in experiment [5]; 62.5 µg/mL (≈ 128 µM) in experiment [6]; 62.5 µg/mL (≈ 128 µM) in experiment [9]; above 125 µg/mL in [13]; 125 µg/mL (≈ 257 µM) in [14].
In the case of `CCN(CC)C(=O)c1ccc(-c2cc(-c3cc(OC)ccc3OC)no2)s1`, the IC50 in experiment [1] is above 30 µM; in [2], 11 µM.
Taken in the same sequence, the figures for `COc1ccc(OC)c(-c2cc(-c3ccc(C(=O)N4CCCCC4)s3)on2)c1` were above 30 µM and above 30 µM.
As to `COc1ccc(OC)c(-c2cc(-c3ccc(C(=O)N4CCC(C(F)(F)F)CC4)s3)on2)c1`, the IC50 in experiment [1] and in experiment [2] was above 30 µM in each case.
`CCCN(C)C(=O)c1ccc(-c2cc(-c3cc(OC)ccc3OC)no2)s1`: the IC50 in experiment [1] and in experiment [2] was above 30 µM throughout.
As for `COc1ccc(OC)c(-c2cc(-c3ccc(C(=O)N(C)Cc4ccc(F)cc4)s3)on2)c1`, the IC50 in [1] and in [2] was above 30 µM throughout.
As for `O=C1C=CC(=O)C(c2cc(-c3ccc(C(=O)N4CCCC4)s3)on2)=C1`, the IC50 in experiment [1] was below 30 µM; in experiment [2], above 30 µM.
With `O=C1C=CC(=O)C(c2cc(-c3ccc(C(=O)N4CCC(C(F)(F)F)CC4)s3)on2)=C1`, the IC50 in experiment [1] and in experiment [2] was above 30 µM throughout.
